Results reported in ChEMBL document CHEMBL5723586, “Data for DCP probe BI-1915” (2024).
Active and inactive are the calls of the source. The rule behind the calls is not given here.

Legend:
[1] = target: 5-hydroxytryptamine receptor 1B (Homo sapiens) (UniProt P28222); assay: 5-HT1B Eurofins-Cerep binding assay; set-up: ligand concentration 1 nM; conditions: Compound concentration 10.0 uM
[2] = target: Cannabinoid receptor 1 (Homo sapiens) (UniProt P21554); assay: CB1 Eurofins-Cerep binding assay; conditions: Compound concentration 10.0 uM
[3] = target: Prostaglandin G/H synthase 1 (Homo sapiens) (UniProt P23219); assay: Inhibitor of COX-1 in the Eurofins Cerep SafetyScreen44 (BI) by Fluorimetry (Cerep_4173); conditions: Compound concentration 10.0 uM
[4] = target: Prostaglandin G/H synthase 2 (Homo sapiens) (UniProt P35354); assay: Inhibitor of COX-2 in the Eurofins Cerep SafetyScreen44 (BI) by Fluorimetry (Cerep_4186); conditions: Compound concentration 10.0 uM
[5] = target: Kappa-type opioid receptor (Homo sapiens) (UniProt P41145); assay: kappa (KOP) Eurofins-Cerep binding assay; conditions: Compound concentration 10.0 uM
[6] = target: 5-hydroxytryptamine receptor 1A (Homo sapiens) (UniProt P08908); assay: 5-HT1A Eurofins-Cerep binding assay; set-up: ligand concentration 0.5 nM; conditions: Compound concentration 10.0 uM
[7] = target: 5-hydroxytryptamine receptor 2A (Homo sapiens) (UniProt P28223); assay: Agonist activity in the Eurofins Cerep SafetyScreen44 (BI) against 5HT2AH_AGON by Scintillation counting (Cerep_471); conditions: Compound concentration 10.0 uM
[8] = target: 5-hydroxytryptamine receptor 2B (Homo sapiens) (UniProt P41595); assay: 5-HT2B Eurofins-Cerep binding assay; conditions: Compound concentration 10.0 uM
[9] = target: 5-hydroxytryptamine receptor 3A (Homo sapiens) (UniProt P46098); assay: 5-HT3 Eurofins-Cerep binding assay; set-up: ligand concentration 0.5 nM; conditions: Compound concentration 10.0 uM
[10] = target: Adenosine receptor A2a (Homo sapiens) (UniProt P29274); assay: A2A Eurofins-Cerep binding assay; set-up: ligand concentration 6 nM; conditions: Compound concentration 10.0 uM
[11] = target: Angiotensin-converting enzyme (Homo sapiens) (UniProt P12821); assay: Activity against ACE(HU_AMTCH400) in the Eurofins Cerep SafetyScreen44 (BI) by Photometry (Cerep_3441); conditions: Compound concentration 10.0 uM
[12] = target: Alpha-1A adrenergic receptor (Homo sapiens) (UniProt P35348); assay: Agonist activity in the Eurofins Cerep SafetyScreen44 (BI) against ALPHA1AH_ANTAG by Scintillation counting (Cerep_2338); conditions: Compound concentration 10.0 uM
[13] = target: Alpha-2A adrenergic receptor (Homo sapiens) (UniProt P08913); assay: Inhibitor of ALPHA2A/HU in the Eurofins Cerep SafetyScreen44 (BI) by Radioactive Assay (Cerep_13); conditions: Compound concentration 10.0 uM
[14] = target: Beta-1 adrenergic receptor (Homo sapiens) (UniProt P08588); assay: beta 1 Eurofins-Cerep binding assay; set-up: ligand concentration 0.3 nM; conditions: Compound concentration 10.0 uM
[15] = target: Beta-2 adrenergic receptor (Homo sapiens) (UniProt P07550); assay: beta 2 Eurofins-Cerep binding assay; conditions: Compound concentration 10.0 uM
Rattus norvegicus [16] = organism: Rattus norvegicus; assay: Activity against BZD/CENTR/R in the Eurofins Cerep SafetyScreen44 (BI) by Radioactive Assay (Cerep_28); assay type: protein-complex assay; conditions: Compound concentration 10.0 uM
[17] = target: L-type calcium channel (dihydropyridine site), Cav1.2 alpha-1C (Rattus norvegicus, UniProt P22002); assay: Inhibitor of CA+/DHPSI/R in the Eurofins Cerep SafetyScreen44 (BI) by Radioactive Assay (Cerep_161); assay type: protein assay; set-up: scale not given: the % may be the effect or the level left; conditions: rat brain, probe [3H](+)PN200-110, compound concentration 10 uM, read-out: % Ctrl
[18] = target: Cannabinoid receptor 2 (Homo sapiens) (UniProt P34972); assay: Activity against CB2/PERIPH/H in the Eurofins Cerep SafetyScreen44 (BI) by Radioactive Assay (Cerep_37); conditions: Compound concentration 10.0 uM
[19] = target: Cholecystokinin receptor type A (Homo sapiens) (UniProt P32238); assay: CCK1 (CCKA) Eurofins-Cerep binding assay; set-up: ligand concentration 0.08 nM; conditions: Compound concentration 10.0 uM
[20] = target: D(1A) dopamine receptor (Homo sapiens) (UniProt P21728); assay: D1 Eurofins-Cerep binding assay; set-up: ligand concentration 0.3 nM; conditions: Compound concentration 10.0 uM
[21] = target: D(2) dopamine receptor (Homo sapiens) (UniProt P14416); assay: Agonist activity in the Eurofins Cerep SafetyScreen44 (BI) against D2SH_AGON by Scintillation counting (Cerep_1322); conditions: Compound concentration 10.0 uM
[22] = target: Sodium-dependent dopamine transporter (Homo sapiens) (UniProt Q01959); assay: dopamine transporter Eurofins-Cerep binding assay; conditions: Compound concentration 10.0 uM
[23] = target: Delta-type opioid receptor (Homo sapiens) (UniProt P41143); assay: delta (DOP) Eurofins-Cerep binding assay; set-up: ligand concentration 0.5 nM; conditions: Compound concentration 10.0 uM
[24] = target: Endothelin-1 receptor (Homo sapiens) (UniProt P25101); assay: ETA Eurofins-Cerep binding assay; set-up: ligand concentration 0.03 nM; conditions: Compound concentration 10.0 uM
[25] = target: Glucocorticoid receptor (Homo sapiens) (UniProt P04150); assay: GR Eurofins-Cerep binding assay; conditions: Compound concentration 10.0 uM
[26] = target: Histamine H1 receptor (Homo sapiens) (UniProt P35367); assay: H1 Eurofins-Cerep binding assay; set-up: ligand concentration 1 nM; conditions: Compound concentration 10.0 uM
[27] = target: Histamine H2 receptor (Homo sapiens) (UniProt P25021); assay: H2 Eurofins-Cerep binding assay; set-up: ligand concentration 0.075 nM; conditions: Compound concentration 10.0 uM
hERG (KCNH2) = hERG (KCNH2) (Homo sapiens, UniProt Q12809); assay: Inhibitor of HERG_DOFETILIDE in the Eurofins Cerep SafetyScreen44 (BI) by Scintillation counting (Cerep_4094); set-up: scale not given: the % may be the effect or the level left; conditions: probe [3H] Dofetilide, compound concentration 10 uM, read-out: % Ctrl
Rattus norvegicus [28] = organism: Rattus norvegicus; assay: KV channel Eurofins-Cerep binding assay; set-up: ligand concentration 0.01 nM; conditions: Compound concentration 10.0 uM
[29] = target: Tyrosine-protein kinase Lck (Homo sapiens) (UniProt P06239); assay: Inhibitor of LCK_CE in the Eurofins Cerep SafetyScreen44 (BI) by lanthanide chelation excitation (Cerep_2906); conditions: Compound concentration 10.0 uM
[30] = target: Muscarinic acetylcholine receptor M1 (Homo sapiens) (UniProt P11229); assay: M1 Eurofins-Cerep binding assay; set-up: ligand concentration 2 nM; conditions: Compound concentration 10.0 uM
[31] = target: Muscarinic acetylcholine receptor M2 (Homo sapiens) (UniProt P08172); assay: M2 Eurofins-Cerep binding assay; set-up: ligand concentration 2 nM; conditions: Compound concentration 10.0 uM
[32] = target: Muscarinic acetylcholine receptor M3 (Homo sapiens) (UniProt P20309); assay: M3 Eurofins-Cerep binding assay; set-up: ligand concentration 0.2 nM; conditions: Compound concentration 10.0 uM
[33] = target: MAO-A (amine oxidase [flavin-containing] A) (Homo sapiens, UniProt P21397); assay: Agonist activity in the Eurofins Cerep SafetyScreen44 (BI) against MAO-A_ANTAG by Scintillation counting (Cerep_443); set-up: scale not given: the % may be the effect or the level left; conditions: rat; compound concentration 10 uM; target entry is the homologue from another species; read-out: % Ctrl
[34] = target: Mu-type opioid receptor (Homo sapiens) (UniProt P35372); assay: mu (MOP) Eurofins-Cerep binding assay; set-up: ligand concentration 0.5 nM; conditions: Compound concentration 10.0 uM
[35] = target: Sodium-dependent noradrenaline transporter (Homo sapiens) (UniProt P23975); assay: norepinephrine transporter Eurofins-Cerep binding assay; set-up: ligand concentration 1 nM; conditions: Compound concentration 10.0 uM
[36] = target: Glutamate NMDA receptor (Rattus norvegicus) (UniProt P35439+Q00959+Q00960+Q00961+Q62645+Q8VHN2+Q9R1M7); assay: Inhibitor of NMDA/R in the Eurofins Cerep SafetyScreen44 (BI) by Radioactive Assay (Cerep_66); assay type: protein-complex assay; conditions: Compound concentration 10.0 uM
Homo sapiens = organism: Homo sapiens; assay: Agonist activity in the Eurofins Cerep SafetyScreen44 (BI) against N_NEURO_A4B2 by Radioligand Binding (Cerep_3029); assay type: protein-complex assay; conditions: Compound concentration 10.0 uM
[37] = target: cGMP-inhibited 3',5'-cyclic phosphodiesterase 3A (Homo sapiens) (UniProt Q14432); assay: Inhibitor of PDE3A in the Eurofins Cerep SafetyScreen44 (BI) by HTRF-homogeneous time resolved fluoresce (Cerep_4072); conditions: Compound concentration 10.0 uM
[38] = target: 3',5'-cyclic-AMP phosphodiesterase 4D (Homo sapiens) (UniProt Q08499); assay: Inhibitor of PDE4D2 in the Eurofins Cerep SafetyScreen44 (BI) by Scintillation counting (Cerep_4077); conditions: Compound concentration 10.0 uM
[39] = target: Sodium-dependent serotonin transporter (Homo sapiens) (UniProt P31645); assay: 5-HT transporter Eurofins-Cerep binding assay; set-up: ligand concentration 2 nM; conditions: Compound concentration 10.0 uM
[40] = target: Vasopressin V1a receptor (Homo sapiens) (UniProt P37288); assay: V1a Eurofins-Cerep binding assay; set-up: ligand concentration 0.3 nM; conditions: Compound concentration 10.0 uM
[41] = target: Androgen receptor (Homo sapiens) (UniProt P10275); conditions: Compound concentration 10.0 uM
Description: Activity against ANDROGEN/H in the Eurofins Cerep SafetyScreen44 (BI) by Radioactive Assay (Cerep_933)

Cathepsin S = Cathepsin S (Homo sapiens, UniProt P25774); assay: Scintillation proximity assay (CTSS)
Cathepsin K = Cathepsin K (Homo sapiens, UniProt P43235); assay: Luminescent based enzymatic assay (CTSK)
Procathepsin L = Procathepsin L (Homo sapiens, UniProt P07711); assay: Luminescent based enzymatic assay (CTSL)
Cathepsin B = Cathepsin B (Homo sapiens, UniProt P07858); assay: Luminescent based enzymatic assay (CTSB)

Mu-type opioid receptor (Homo sapiens), sequence (P35372 whole entry): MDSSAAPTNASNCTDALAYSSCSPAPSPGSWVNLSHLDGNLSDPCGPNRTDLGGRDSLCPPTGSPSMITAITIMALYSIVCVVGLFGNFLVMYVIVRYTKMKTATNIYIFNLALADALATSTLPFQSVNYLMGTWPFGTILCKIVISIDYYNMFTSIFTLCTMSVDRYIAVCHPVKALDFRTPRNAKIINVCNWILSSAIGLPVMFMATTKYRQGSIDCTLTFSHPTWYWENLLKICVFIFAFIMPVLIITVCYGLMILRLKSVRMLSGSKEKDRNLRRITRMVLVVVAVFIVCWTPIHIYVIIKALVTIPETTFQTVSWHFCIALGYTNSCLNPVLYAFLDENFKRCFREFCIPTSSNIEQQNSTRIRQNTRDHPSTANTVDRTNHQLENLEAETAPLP
Alpha-1A adrenergic receptor (Homo sapiens), sequence (P35348 whole entry): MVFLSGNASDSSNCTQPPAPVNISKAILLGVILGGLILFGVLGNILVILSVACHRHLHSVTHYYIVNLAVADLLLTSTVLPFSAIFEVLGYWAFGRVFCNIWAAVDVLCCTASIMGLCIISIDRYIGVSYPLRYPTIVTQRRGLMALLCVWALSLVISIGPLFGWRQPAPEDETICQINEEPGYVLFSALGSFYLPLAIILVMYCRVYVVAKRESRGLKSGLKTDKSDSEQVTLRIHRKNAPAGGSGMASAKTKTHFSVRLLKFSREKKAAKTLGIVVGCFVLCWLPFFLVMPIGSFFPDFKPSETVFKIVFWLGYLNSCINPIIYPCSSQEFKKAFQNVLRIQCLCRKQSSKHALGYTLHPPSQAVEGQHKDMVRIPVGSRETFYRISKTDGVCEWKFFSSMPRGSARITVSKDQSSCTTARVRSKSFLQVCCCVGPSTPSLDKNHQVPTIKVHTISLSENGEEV
5-hydroxytryptamine receptor 2B (Homo sapiens), sequence (P41595 whole entry): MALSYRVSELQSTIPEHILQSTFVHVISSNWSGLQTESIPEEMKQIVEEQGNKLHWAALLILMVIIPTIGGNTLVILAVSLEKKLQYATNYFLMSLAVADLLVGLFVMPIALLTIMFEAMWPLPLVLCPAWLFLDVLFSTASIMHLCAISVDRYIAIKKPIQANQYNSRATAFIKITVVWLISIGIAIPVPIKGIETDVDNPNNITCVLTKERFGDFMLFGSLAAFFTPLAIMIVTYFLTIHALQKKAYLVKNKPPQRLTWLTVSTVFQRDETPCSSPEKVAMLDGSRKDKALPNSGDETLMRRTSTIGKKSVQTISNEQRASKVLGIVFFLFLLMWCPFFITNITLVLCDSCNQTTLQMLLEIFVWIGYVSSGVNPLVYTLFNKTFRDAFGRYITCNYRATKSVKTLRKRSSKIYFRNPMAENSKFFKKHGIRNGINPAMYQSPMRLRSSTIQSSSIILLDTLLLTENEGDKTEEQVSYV
Cannabinoid receptor 1 (Homo sapiens), sequence (P21554 whole entry): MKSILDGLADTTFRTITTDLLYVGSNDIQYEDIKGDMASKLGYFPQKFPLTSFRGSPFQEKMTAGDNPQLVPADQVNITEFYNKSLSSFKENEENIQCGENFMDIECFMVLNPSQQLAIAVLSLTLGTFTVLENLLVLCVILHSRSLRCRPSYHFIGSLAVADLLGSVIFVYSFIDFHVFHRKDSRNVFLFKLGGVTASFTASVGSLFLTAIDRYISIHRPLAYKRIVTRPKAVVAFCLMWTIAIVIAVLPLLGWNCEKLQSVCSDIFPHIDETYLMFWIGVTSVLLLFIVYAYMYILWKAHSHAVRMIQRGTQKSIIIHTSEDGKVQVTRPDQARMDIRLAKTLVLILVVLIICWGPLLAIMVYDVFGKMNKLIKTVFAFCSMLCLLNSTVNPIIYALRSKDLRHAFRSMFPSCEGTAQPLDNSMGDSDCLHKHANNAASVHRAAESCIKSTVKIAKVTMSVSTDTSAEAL
MAO-A (amine oxidase [flavin-containing] A), sequence (P21397 whole entry): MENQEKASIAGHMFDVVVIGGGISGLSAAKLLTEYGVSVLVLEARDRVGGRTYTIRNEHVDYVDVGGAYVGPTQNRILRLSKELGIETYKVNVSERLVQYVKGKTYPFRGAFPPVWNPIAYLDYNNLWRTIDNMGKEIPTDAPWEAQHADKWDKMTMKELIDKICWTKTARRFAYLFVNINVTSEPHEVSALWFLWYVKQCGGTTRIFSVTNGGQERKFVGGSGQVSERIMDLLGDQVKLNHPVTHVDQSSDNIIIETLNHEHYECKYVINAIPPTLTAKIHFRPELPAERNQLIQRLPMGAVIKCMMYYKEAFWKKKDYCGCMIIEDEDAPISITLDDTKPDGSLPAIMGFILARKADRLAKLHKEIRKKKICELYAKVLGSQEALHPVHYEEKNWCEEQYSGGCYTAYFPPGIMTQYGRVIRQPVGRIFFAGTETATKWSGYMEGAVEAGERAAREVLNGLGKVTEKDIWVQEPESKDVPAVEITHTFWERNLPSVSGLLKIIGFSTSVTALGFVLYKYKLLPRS
hERG (KCNH2), sequence (Q12809 whole entry): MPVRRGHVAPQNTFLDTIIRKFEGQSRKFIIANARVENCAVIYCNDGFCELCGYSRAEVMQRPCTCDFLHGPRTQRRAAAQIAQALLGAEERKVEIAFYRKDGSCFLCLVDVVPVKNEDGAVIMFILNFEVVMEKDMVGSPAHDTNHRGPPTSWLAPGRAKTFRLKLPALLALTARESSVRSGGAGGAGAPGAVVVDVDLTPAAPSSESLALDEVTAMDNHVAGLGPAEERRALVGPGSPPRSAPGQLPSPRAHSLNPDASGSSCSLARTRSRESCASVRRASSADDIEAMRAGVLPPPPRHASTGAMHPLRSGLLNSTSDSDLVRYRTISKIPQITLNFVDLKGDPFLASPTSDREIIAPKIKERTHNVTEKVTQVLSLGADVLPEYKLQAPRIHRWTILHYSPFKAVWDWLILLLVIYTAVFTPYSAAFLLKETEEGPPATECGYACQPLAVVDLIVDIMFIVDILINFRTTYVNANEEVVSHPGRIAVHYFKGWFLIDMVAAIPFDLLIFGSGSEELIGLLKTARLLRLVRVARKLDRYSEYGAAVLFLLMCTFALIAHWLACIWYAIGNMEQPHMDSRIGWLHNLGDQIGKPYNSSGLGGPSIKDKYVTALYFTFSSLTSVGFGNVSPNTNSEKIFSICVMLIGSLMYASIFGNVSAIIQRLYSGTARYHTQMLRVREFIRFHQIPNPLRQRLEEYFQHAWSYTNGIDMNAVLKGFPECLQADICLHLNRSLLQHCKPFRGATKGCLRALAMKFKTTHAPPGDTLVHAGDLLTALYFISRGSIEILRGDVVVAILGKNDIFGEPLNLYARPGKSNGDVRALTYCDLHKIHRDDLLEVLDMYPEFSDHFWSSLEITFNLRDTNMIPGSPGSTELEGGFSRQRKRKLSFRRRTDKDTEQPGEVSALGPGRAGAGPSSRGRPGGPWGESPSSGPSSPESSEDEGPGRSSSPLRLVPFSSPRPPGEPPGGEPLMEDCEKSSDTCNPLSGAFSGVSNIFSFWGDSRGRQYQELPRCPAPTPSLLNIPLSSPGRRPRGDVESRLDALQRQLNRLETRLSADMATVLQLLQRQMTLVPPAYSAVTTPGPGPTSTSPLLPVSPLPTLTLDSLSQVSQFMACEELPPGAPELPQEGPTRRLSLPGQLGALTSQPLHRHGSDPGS
Cannabinoid receptor 2 (Homo sapiens), sequence (P34972 whole entry): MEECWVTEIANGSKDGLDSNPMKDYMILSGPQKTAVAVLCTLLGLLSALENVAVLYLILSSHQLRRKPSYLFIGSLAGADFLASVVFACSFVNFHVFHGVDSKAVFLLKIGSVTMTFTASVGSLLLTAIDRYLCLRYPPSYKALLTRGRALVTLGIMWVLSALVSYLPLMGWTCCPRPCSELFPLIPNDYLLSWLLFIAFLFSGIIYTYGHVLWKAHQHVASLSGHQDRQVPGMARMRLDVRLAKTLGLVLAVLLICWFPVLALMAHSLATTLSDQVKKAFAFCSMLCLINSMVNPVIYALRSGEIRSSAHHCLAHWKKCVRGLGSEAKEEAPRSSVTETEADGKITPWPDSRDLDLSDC
Kappa-type opioid receptor (Homo sapiens), sequence (P41145 whole entry): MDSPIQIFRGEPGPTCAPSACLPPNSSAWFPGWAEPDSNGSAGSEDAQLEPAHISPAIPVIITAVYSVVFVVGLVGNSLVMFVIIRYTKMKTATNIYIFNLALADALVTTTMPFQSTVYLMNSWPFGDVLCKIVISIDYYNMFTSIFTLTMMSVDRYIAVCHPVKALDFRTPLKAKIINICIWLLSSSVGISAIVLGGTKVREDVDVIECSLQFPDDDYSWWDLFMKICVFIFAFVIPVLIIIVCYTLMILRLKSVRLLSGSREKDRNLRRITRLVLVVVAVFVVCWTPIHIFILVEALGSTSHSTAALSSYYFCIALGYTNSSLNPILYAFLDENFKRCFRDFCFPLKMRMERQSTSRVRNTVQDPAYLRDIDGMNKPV
5-hydroxytryptamine receptor 3A (Homo sapiens), sequence (P46098 whole entry): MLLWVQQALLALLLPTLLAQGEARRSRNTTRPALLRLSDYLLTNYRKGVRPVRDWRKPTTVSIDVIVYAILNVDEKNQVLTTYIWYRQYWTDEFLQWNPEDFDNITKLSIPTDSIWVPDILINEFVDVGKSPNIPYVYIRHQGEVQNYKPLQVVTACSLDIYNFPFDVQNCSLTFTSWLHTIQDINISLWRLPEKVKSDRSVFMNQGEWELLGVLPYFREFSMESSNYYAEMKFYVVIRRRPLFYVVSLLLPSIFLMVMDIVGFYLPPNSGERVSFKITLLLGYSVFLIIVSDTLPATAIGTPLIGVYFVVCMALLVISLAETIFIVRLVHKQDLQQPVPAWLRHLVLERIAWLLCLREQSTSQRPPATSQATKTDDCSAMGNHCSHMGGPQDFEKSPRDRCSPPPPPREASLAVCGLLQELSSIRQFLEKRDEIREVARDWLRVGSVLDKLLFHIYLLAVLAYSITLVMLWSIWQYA

CN1CCC(C#N)(NC(=O)[C@@H](NC(=O)N2CCOCC2)C(C)(C)C)CC1
residual activity [1]: 61% | residual activity [2]: 112% | residual activity [3]: 108% | residual activity [4]: 90% | residual activity [5]: 96% | residual activity [6]: 97% | residual activity [7]: 123% | residual activity [8]: 117% | residual activity [9]: 97% | residual activity [10]: 87% | residual activity [11]: 105% | residual activity [12]: 104% | residual activity [13]: 80% | residual activity [14]: 97% | residual activity [15]: 92% | residual activity (Rattus norvegicus [16]): 111% | activity at 10 µM [17]: 115% (not active) | residual activity [18]: 109% | residual activity [19]: 96% | residual activity [20]: 105% | residual activity [21]: 107% | residual activity [22]: 105% | residual activity [23]: 106% | residual activity [24]: 112% | residual activity [25]: 105% | residual activity [26]: 106% | residual activity [27]: 92% | activity at 10 µM (hERG (KCNH2)): 98% (not active) | residual activity (Rattus norvegicus [28]): 110% | residual activity [29]: 99% | residual activity [30]: 108% | residual activity [31]: 125% | residual activity [32]: 112% | activity at 10 µM [33]: 105% (not active) | residual activity [34]: 96% | residual activity [35]: 120% | residual activity [36]: 92% | residual activity (Homo sapiens): 98% | residual activity [37]: 88% | residual activity [38]: 105% | residual activity [39]: 106% | residual activity [40]: 94% | residual activity [41]: 110%

CCC(C)(C)CC[C@H](NC(=O)N1CCOCC1)C(=O)NC1(C#N)CCN(C)CC1
residual activity [1]: 92.5% | residual activity [2]: 116% | residual activity [3]: 112% | residual activity [4]: 104% | residual activity [5]: 84.5% | residual activity [6]: 104% | residual activity [7]: 104% | residual activity [8]: 118% | residual activity [9]: 100% | residual activity [10]: 102% | residual activity [11]: 98.5% | residual activity [12]: 110% | residual activity [13]: 97% | residual activity [14]: 101% | residual activity [15]: 103% | residual activity (Rattus norvegicus [16]): 114% | activity at 10 µM [17]: 106% (not active) | residual activity [18]: 106% | residual activity [19]: 88% | residual activity [20]: 94% | residual activity [21]: 106% | residual activity [22]: 98.5% | residual activity [23]: 92.5% | residual activity [24]: 106% | residual activity [25]: 102% | residual activity [26]: 101% | residual activity [27]: 106% | activity at 10 µM (hERG (KCNH2)): 100% (not active) | residual activity (Rattus norvegicus [28]): 109% | residual activity [29]: 96.5% | residual activity [30]: 105% | residual activity [31]: 106% | residual activity [32]: 106% | activity at 10 µM [33]: 108% (not active) | residual activity [34]: 81% | residual activity [35]: 103% | residual activity [36]: 106% | residual activity (Homo sapiens): 114% | residual activity [37]: 103% | residual activity [38]: 100% | residual activity [39]: 106% | residual activity [40]: 92.5% | Kd (Cathepsin S): 0.031 µM (active) | IC50 (Cathepsin K): > 10 µM (not active) | IC50 (Procathepsin L): > 30 µM (not active) | IC50 (Cathepsin B): > 10 µM (not active) | residual activity [41]: 107%
